Measured values reported in patent US8466113B2, “4-isopropylphenyl glucitol compounds as SGLT1 inhibitors” (Taisho Pharmaceutical Co., Ltd., priority 2009, dated 2013).

How the values were obtained:
Type in all cases: cell-based
human SGLT1 = target: T1, human SGLT1 (Homo sapiens, UniProt P13866); assay: Inhibition test for sodium-dependent sugar uptake in CHO-K1 cells stably expressing human SGLT1; conditions: [14C]methyl α-D-glucopyranoside uptake, 37° C., 30 minutes, read-out: IC50 for hSGLT1
T1 construct: expressed in transfected cells; host or cells: CHO-K1
T1 sequence (P13866 1-664): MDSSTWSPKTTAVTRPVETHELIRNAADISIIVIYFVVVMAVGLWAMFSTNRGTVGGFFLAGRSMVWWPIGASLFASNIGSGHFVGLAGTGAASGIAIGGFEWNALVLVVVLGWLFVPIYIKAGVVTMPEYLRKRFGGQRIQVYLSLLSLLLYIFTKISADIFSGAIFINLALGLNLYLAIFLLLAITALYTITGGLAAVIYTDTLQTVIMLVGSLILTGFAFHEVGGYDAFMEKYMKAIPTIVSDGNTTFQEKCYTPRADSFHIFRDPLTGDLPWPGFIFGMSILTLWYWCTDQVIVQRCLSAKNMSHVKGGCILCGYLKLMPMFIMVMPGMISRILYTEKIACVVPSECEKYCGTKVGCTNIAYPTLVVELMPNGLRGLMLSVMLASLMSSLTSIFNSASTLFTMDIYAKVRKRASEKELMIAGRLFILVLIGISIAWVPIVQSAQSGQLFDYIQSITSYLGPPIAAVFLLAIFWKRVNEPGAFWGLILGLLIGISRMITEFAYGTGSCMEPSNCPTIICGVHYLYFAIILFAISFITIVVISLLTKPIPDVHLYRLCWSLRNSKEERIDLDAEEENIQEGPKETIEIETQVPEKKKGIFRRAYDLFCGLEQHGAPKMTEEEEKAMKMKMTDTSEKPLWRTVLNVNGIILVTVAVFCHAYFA
Protocol: (1) Creation of CHO-K1 Cells Stably Expressing Human SGLT1
(§1) A plasmid vector expressing human SGLT1 protein was transfected into CHO-K1 cells using lipofectamine 2000 (Invitrogen). The cells were cultured in the presence of 500 μg/mL geneticin to select resistant strains, followed by screening in the system shown below using sugar uptake capacity as an indicator to obtain SGLT1-expressing cells.
(§2) (3) Inhibition Test for Sodium-Dependent Sugar Uptake in Stably Expressing Cells
(§3) The stably expressing cells prepared above were used in the following test.
(§4) Pretreatment buffer (140 mM choline chloride, 2 mM KCl, 1 mM CaCl2, 1 mM MgCl2, 10 mM HEPES/5 mM Tris, pH 7.4) was added in a volume of 200 μL to the cells stably expressing SGLT1 or 2 mL for Method A and 200 μL for Method B to the cells stably expressing SGLT2, followed by incubation for 20 minutes. The pretreatment buffer was removed and replaced by uptake buffer containing a test compound (1 mM methyl α-D-glucopyranoside (containing [^14C]methyl α-D-glucopyranoside), 140 mM NaCl, 2 mM KCl, 1 mM CaCl2, 1 mM MgCl2, 10 mM HEPES/5 mM Tris, pH 7.4) in a volume of 75 μL for SGLT1 and SGLT2 in Method B or 200 μL for SGLT2 in Method A. Uptake reaction was performed at 37° C. for 30 minutes (SGLT1) or 60 minutes (SGLT2). After the reaction, the cells were washed twice with washing buffer (10 mM methyl α-D-glucopyranoside, 140 mM choline chloride, 2 mM KCl, 1 mM CaCl2, 1 mM MgCl2, 10 mM HEPES/5 mM Tris, pH 7.4) in a volume of 200 μL for SGLT1 and SGLT2 in Method B or 2 mL for SGLT2 in Method A, and then dissolved in a 0.25 M NaOH solution (75 μL for SGLT1 and SGLT2 in Method B or 400 μL for SGLT2 in Method A). A liquid scintillator (Perkin Elmer) was added and mixed well with each sample, followed by measurement of radioactivity using a β-ray analyzer. For the control group, uptake buffer containing no test compound was prepared. Moreover, another uptake buffer containing choline chloride instead of NaCl was also prepared for basal uptake.
(§5) For determination of IC50 values, test compounds prepared at 6 appropriate concentrations were used and their concentrations required for 50% inhibition of the amount of sugar uptake (IC50 values) were calculated relative to the amount of sugar uptake in the control group (100%).

[1] = target: T2, human SGLT2 protein modified to have LeuGluSerArgGlyProVal added to the carboxy-terminal final residue (Homo sapiens, UniProt P31639); assay: Inhibition test for sodium-dependent sugar uptake in CHO-K1 cells stably expressing human SGLT2, Method A; conditions: uptake 37° C., 60 minutes, read-out: IC50 for hSGLT2 Method A
T2 construct: expressed in transfected cells; host or cells: CHO-K1
T2 sequence (P31639 with tags, fused parts or gaps): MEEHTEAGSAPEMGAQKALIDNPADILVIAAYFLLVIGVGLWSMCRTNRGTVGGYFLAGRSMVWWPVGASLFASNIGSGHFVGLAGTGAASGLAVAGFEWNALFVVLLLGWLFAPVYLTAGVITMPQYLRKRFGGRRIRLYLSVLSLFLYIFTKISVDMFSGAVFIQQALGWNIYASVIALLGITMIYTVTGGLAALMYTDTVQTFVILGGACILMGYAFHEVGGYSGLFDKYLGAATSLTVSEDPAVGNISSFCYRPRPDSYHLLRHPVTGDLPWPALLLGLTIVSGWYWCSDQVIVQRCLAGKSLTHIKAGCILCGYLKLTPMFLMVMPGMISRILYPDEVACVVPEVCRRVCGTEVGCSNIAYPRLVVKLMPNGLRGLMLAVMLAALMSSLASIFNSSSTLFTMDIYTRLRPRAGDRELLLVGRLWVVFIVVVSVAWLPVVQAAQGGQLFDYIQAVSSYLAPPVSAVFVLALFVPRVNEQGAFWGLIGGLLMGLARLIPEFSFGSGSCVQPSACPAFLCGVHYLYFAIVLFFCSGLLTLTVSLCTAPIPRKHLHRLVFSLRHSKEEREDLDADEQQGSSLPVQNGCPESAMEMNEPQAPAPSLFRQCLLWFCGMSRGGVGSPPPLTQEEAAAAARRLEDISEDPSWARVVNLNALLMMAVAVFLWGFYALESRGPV
Protocol: (§6) (2) Creation of CHO-K1 Cells Stably Expressing Human SGLT2
as §1, with “Method A (described in WO2007/136116): A” for “A”, “SGLT2” for “SGLT1”, “protein modified to have LeuGluSerArgGlyProVal added to the carboxy-terminal final residue” for “protein”, “hygromycin B” for “geneticin”, “SGLT2-expressing” for “SGLT1-expressing”
as §2, §3, §4, §5

human SGLT2 = target: T3, human SGLT2 (Homo sapiens, UniProt P31639); assay: Inhibition test for sodium-dependent sugar uptake in CHO-K1 cells stably expressing human SGLT2, Method B; conditions: uptake 37° C., 60 minutes, read-out: IC50 for hSGLT2 Method B
T3 construct: expressed in transfected cells; host or cells: CHO-K1
T3 sequence (P31639 1-672): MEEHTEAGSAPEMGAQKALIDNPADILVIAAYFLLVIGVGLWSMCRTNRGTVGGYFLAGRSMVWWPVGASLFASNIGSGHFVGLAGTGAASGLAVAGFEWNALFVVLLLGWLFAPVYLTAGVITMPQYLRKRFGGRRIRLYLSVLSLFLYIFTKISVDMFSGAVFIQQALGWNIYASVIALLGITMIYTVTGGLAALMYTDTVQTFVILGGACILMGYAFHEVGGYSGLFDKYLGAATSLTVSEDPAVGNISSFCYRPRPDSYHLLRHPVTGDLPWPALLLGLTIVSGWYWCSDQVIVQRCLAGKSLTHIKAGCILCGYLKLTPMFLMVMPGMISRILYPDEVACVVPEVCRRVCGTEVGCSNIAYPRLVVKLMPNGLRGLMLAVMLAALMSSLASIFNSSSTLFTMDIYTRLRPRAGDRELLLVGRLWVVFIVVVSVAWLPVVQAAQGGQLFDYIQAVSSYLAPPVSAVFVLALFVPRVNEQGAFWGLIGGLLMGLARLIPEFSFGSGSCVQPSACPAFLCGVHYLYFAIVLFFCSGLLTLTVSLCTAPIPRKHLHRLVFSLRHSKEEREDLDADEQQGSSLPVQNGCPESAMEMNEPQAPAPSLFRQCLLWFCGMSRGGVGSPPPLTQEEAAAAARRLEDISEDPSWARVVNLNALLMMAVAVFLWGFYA
Protocol: as §6
as §1, with “Method B: A” for “A”, “SGLT2” for “SGLT1”, “LTX” for “2000”, “1000” for “500”, “SGLT2-expressing” for “SGLT1-expressing”
as §2, §3, §4, §5

Compound | IC50 (human SGLT1) [nM] | IC50 [1] [nM] | IC50 (human SGLT2) [nM]
Cc1cc(/C=C/C(C)(C)C(=O)NC(C)(C)C(=O)N2CCNCC2)ccc1Cc1cc([C@@H]2O[C@H](CO)[C@@H](O)[C@H](O)[C@H]2O)c(O)cc1C(C)C [Example 2-2] | 30 | 971 | 28
Cc1cc(/C=C/C(C)(C)C(=O)NC(C)(C)C(=O)N2CCN(C)CC2)ccc1Cc1cc([C@@H]2O[C@H](CO)[C@@H](O)[C@H](O)[C@H]2O)c(O)cc1C(C)C [Example 3-2] | 35 | 1720 | 81
CCN1CCN(C(=O)C(C)(C)NC(=O)C(C)(C)/C=C/c2ccc(Cc3cc([C@@H]4O[C@H](CO)[C@@H](O)[C@H](O)[C@H]4O)c(O)cc3C(C)C)c(C)c2)CC1 [Example 4-2] | 46 | 1640 | 76
COc1cc(C(C)C)c(Cc2ccc(/C=C/C(C)(C)C(=O)NC(C)(C)C(=O)NCCN(C)C)cc2C)cc1[C@@H]1O[C@H](CO)[C@@H](O)[C@H](O)[C@H]1O [Example 7-2] | 46 | 11100 | –
COc1cc(C(C)C)c(Cc2ccc(/C=C/C(C)(C)C(=O)NC(C)(C)C(=O)NCCN)cc2C)cc1[C@@H]1O[C@H](CO)[C@@H](O)[C@H](O)[C@H]1O [Example 8-3] | 50 | 15700 | 476
COc1cc(C(C)C)c(Cc2ccc(/C=C/C(C)(C)C(=O)NC(C)(C)C(=O)N3CCNCC3)cc2C)cc1[C@@H]1O[C@H](CO)[C@@H](O)[C@H](O)[C@H]1O [Example 9-2] | 34 | 7230 | 200
COc1cc(C(C)C)c(Cc2ccc(/C=C/C(C)(C)C(=O)NC(C)(C)C(=O)N3CCN(C)CC3)cc2C)cc1[C@@H]1O[C@H](CO)[C@@H](O)[C@H](O)[C@H]1O [Example 10-2] | 55 | 14900 | 281
CCN1CCN(C(=O)C(C)(C)NC(=O)C(C)(C)/C=C/c2ccc(Cc3cc([C@@H]4O[C@H](CO)[C@@H](O)[C@H](O)[C@H]4O)c(OC)cc3C(C)C)c(C)c2)CC1 [Example 11-2] | 59 | 9750 | 546
COc1cc(C(C)C)c(Cc2ccc(/C=C/C(C)(C)C(=O)NC(C)(C)C(=O)N3CCC(N(C)C)CC3)cc2C)cc1[C@@H]1O[C@H](CO)[C@@H](O)[C@H](O)[C@H]1O [Example 12-2] | 70 | 4950 | 113
COc1cc(C(C)C)c(Cc2ccc(/C=C/C(C)(C)C(=O)NC(C)(C)C(=O)NC3CCNCC3)cc2C)cc1[C@@H]1O[C@H](CO)[C@@H](O)[C@H](O)[C@H]1O [Example 14-2] | 72 | 2390 | 82
COc1cc(C(C)C)c(Cc2ccc(/C=C/C(C)(C)C(=O)NC(C)(C)C(=O)N3CCNCC3)cc2)cc1[C@@H]1O[C@H](CO)[C@@H](O)[C@H](O)[C@H]1O [Example 16-2] | 38 | 1020 | 17
COc1cc(C(C)C)c(Cc2ccc(/C=C/C(C)(C)C(=O)NC(C)(C)C(=O)N3CCN(C)CC3)cc2)cc1[C@@H]1O[C@H](CO)[C@@H](O)[C@H](O)[C@H]1O [Example 17-2] | 42 | 979 | 26
